# According to patent US20260240740A1, “MULTI-PHOTOPROTECTIVE COMPOUNDS AND USES THEREOF” (SKINOSIVE, priority 2022, published 2026):
# Where “and” joins values, the source holds several entries; their conditions need not be identical. Equal entries are not always repeated.
# Columns and labels:
# [1] = Photostability after UV irradiation, HPLC; format: physicochemical
# Method: (§1) Compound #2 (OOD), Univul A plus (DHHB), Octocrylene (OCR), and Univul A plus (DHHB)+Octocrylene (OCR) were dissolved in Ethanol at 1 mM and were irradiated at 2000 and 4000 J/dm2 for 1 h and 2 h in a 24-well plate, respectively, in 2 replicates (1 replicate for HPLC and 1 replicate for absorbance spectra).
# as §1, with “#4 (OHD),” for “#2 (OOD),”
# (§2) Compound #5 (BOO), Tinosorb S (BEMT), and Octocrylene (OCR) were dissolved in Dubdis at 2 mM and were irradiated at 4000 J/dm2 for 2 h in a 24-well plate, respectively, in 2 replicates (1 replicate for HPLC and 1 replicate for absorbance spectra).
# [2] = Photostability after UV irradiation, absorbance spectra; format: physicochemical; conditions: for Absorbance peak, Without UV irradiation, first or only peak / Absorbance peak, Irradiation 4000 J/dm2, first or only peak / Absorbance peak, Without UV irradiation, second peak / Absorbance peak, Irradiation 4000 J/dm2, second peak: 2 mM; for Absorbance peak, Irradiation 4000 J/dm2, first or only peak / Absorbance peak, Irradiation 4000 J/dm2 / Absorbance peak, Irradiation 4000 J/dm2, second peak: 2 h; for Absorbance peak, Without UV irradiation / Absorbance peak, Irradiation 2000 J/dm2 / Absorbance peak, Irradiation 4000 J/dm2 / λmax after irradiation / Effect of irradiation on UV absorbance profile: Ethanol; for Absorbance peak, Without UV irradiation / Absorbance peak, Irradiation 2000 J/dm2 / Absorbance peak, Irradiation 4000 J/dm2: 1 mM; for Absorbance peak, Irradiation 2000 J/dm2: 1 h; for λmax after irradiation / Effect of irradiation on UV absorbance profile: 2000 or 4000 J/dm2 for 1 or 2 hours
# Method: as §1
# as §1, with “#4 (OHD),” for “#2 (OOD),”
# as §2
# [3] = UV absorbance profile: λmax in solvents, FLUOstar plate reader; format: physicochemical; conditions: for λmax: 125 μM; for λmax double peak, first peak / λmax double peak, second peak: 50 μM
# Method: Compound #2 (OOD), Univul A plus (DHHB)+Octocrylene (OCR) were dissolved in a solvent at the same concentration (125 μM).
# Compound #4 (OHD), Univul A plus (DHHB)+Octocrylene (OCR) were dissolved in a solvent at the same concentration (125 μM).
# Compound #5 (BOO) and BEMT (6,6′-(6-(4-methoxyphenyl)-1,3,5-triazine-2,4-diyl)bis(3-((2-ethylhexyl)oxy)phenol)=Tinosorb S)+Octocrylene (OCR) were dissolved in a solvent at the same concentration (50 μM).
# UV Absorbance Profil of Compound #6 (BOO-OM) Compound #6 (BOO-OM) and BEMT (6,6′-(6-(4-methoxyphenyl)-1,3,5-triazine-2,4-diyl)bis(3-((2-ethylhexyl)oxy)phenol)=Tinosorb S)+Octocrylene (OCR) were dissolved in a solvent at the same concentration (50 μM).
# [4] = Solubility in sunscreen solvents; format: physicochemical; conditions: 50° C.
# Method: Compound #2 (OOD) and a sunscreen solvent were weighed in a Becher. The Becher was placed on a magnetic stir plate, heated up to 50° C., and the solution was vigorously mixed with a bar magnet.
# Compound #4 (OHD) and a sunscreen solvent were weighed in a Becher. The Becher was placed on a magnetic stir plate, heated up to 50° C., and the solution was vigorously mixed with a bar magnet.
# Compound #5 (BOO) and a sunscreen solvent were weighed in a Becher. The Becher was placed on a magnetic stir plate, heated up to 50° C., and the solution was vigorously mixed with a bar magnet.
# Compound #6 (BOO-OM) and a sunscreen solvent were weighed in a Becher. The Becher was placed on a magnetic stir plate, heated up to 50° C., and the solution was vigorously mixed with a bar magnet.
# pig skin = experiment: UV protection ex vivo on pig skin by autofluorescence quenching
# Method: UV Protection Performance of Compound #2 (OOD) UVB and UVA protections have been assessed ex vivo on pig skin by measuring the autofluorescence quenching. OOD (Compound #2), the mix of DHHB+OCR were solubilized at the same molar concentration in Dottisol (isosorbide dimethyl ether), covered 6.25 cm2 skin square and incubated 20 min or 2 hours at room temperatures, and then 7 mm skin punches were cut and placed in a black 96-well plate. UVB and UVA protections were measured after respectively an excitation at 300 nm and 355 nm and a fluorescence emission was read at 460 nm. DMSO was added on the pig skin before the reading of the residual fluorescence.
# UVB and UVA protections have been assessed ex vivo on pig skin by measuring the autofluorescence quenching. BOO (Compound #5) and the mix of BEMT+OCR were solubilized at the same molar concentration in Dottisol (isosorbide dimethyl ether), covered 6.25 cm^2 skin square and incubated 4 hours at 34° C., washed or not with 10 mL Ethanol for 5 min, and then 7 mm diameter skin punches were cut and placed in a black 96-well plate. UVB and UVA protections were measured after respectively an excitation at 300 nm and 355 nm and a fluorescence emission was read at 460 nm.
# UVB protection has been assessed ex vivo on pig skin by measuring the autofluorescence quenching. BOO (Compound #5), BOO-OM (Compound #6) and the mix of BEMT+OCR were solubilized at the same molar concentration in DMDA (dimethyl capramide), covered 6.25 cm2 skin square and incubated 2 hours at 34° C., washed or not with 10 mL Ethanol for 5 min, and then 7 mm diameter skin punches were cut and placed in a black 96-well plate. UVB protection was measured after respectively an excitation at 300 nm and a fluorescence emission was read at 460 nm.
# [5] = tested on: thiolated polylysine matrix; experiment: Bio adhesion on thiolated polylysine matrix (UV absorbance at 310 nm after ethanol washes); conditions: overnight incubation in ethanol/PBS (90%/10%), washed 10 times with ethanol
# Method: Polylysine and Polylysine enriched in SH by thiolation of primary amines using Traut's reagent were used for coating 96-well microplates. UV filters (BOO and BOO-OM) were incubated overnight under orbital agitation on the different matrices (n=3 for each condition) (uncoated wells were used as negative controls), in an ethanol/PBS (90%/10%) solution. After incubation, each microplate well was thoroughly washed 10 times with ethanol, before measuring UV absorbance. Whole UV/Visible absorbance spectrum from 220 to 1000 nm were measured in the center of each microplate well. In addition, specific UV absorbance at 310 nm was measured by matrix scan over the whole the well as a 10×10 matrix.
# [6] = Cetiol HE (PEG-7 Glyceryl Cocoate)
# [7] = pig skin autofluorescence after 2 h of incubation, Dottisol, Mean +/− SD, N = 3
# [8] = pig skin autofluorescence after 4 h of incubation, Dottisol, 10 mL Ethanol 5 min, Mean +/− SD, N = 3
# [9] = pig skin autofluorescence after 4 h of incubation, Dottisol, Mean +/− SD, N = 3
degradation observed by HPLC after irradiation ([1]; Dubdis),degradation observed by HPLC after irradiation ([1]; Ethanol),"Absorbance peak, Without UV irradiation, first or only peak ([2]; Dubdis) [nm]","Absorbance peak, Irradiation 4000 J/dm2, first or only peak ([2]; Dubdis) [nm]","Absorbance peak, Without UV irradiation [2] [nm]","Absorbance peak, Irradiation 2000 J/dm2 [2] [nm]","Absorbance peak, Irradiation 4000 J/dm2 [2] [nm]","Absorbance peak, Without UV irradiation, second peak ([2]; Dubdis) [nm]","Absorbance peak, Irradiation 4000 J/dm2, second peak ([2]; Dubdis) [nm]",λmax ([3]; DMSO) [nm],λmax ([3]; Ethanol) [nm],soluble at ratio ([4]; Cetiol B (Dibutyl Adipate)),purity by HPLC after irradiation ([1]; Ethanol) [%],"purity by HPLC, non-irradiated ([1]; Ethanol) [%]",λmax after irradiation [2] [nm],Effect of irradiation on UV absorbance profile ([2]; UVB and UVA range),SMILES,further results
No degradation,No degradation,305,309,304,304,304,–,–,–,–,–,–,–,–,–,"CCCCC(CC)COC(=O)C(C#N)=C(c1ccccc1)c1ccccc1 (stereo not shown) [OCR, 2-ethylhexyl 2 cyano-3,3-diphenylacrylate, reference compound]",–
No degradation,–,310,310,–,–,–,351,351,–,–,–,–,–,–,–,"CCCCC(CC)COc1ccc(-c2nc(-c3ccc(OC)cc3)nc(-c3ccc(OCC(CC)CCCC)cc3O)n2)c(O)c1 (stereo not shown) [BEMT, 6,6′-(6-(4-methoxyphenyl)-1,3,5-triazine-2,4-diyl)bis(3-((2-ethylhexyl)oxy)phenol), reference compound]",–
–,No degradation,–,–,357,357,357,–,–,356,356,1/1,98.80,99.17,357,did not modify,"CCN(CC)c1ccc(C(=O)c2ccccc2C(=O)NCCCCCCCCOC(=O)C(C#N)=C(c2ccccc2)c2ccccc2)c(O)c1 [Compound #2, 8-[[2-[4-(diethylamino)-2-hydroxy-benzoyl]benzoyl]amino]octyl 2-cyano-3,3-diphenyl-prop-2-enoate]","λmax ([3]; Cetiol B (Dibutyl Adipate)): 355 nm; λmax [3, 6]: 355 nm; λmax ([3]; Dubdis (diisopropyl sebacate), listed as OOD): 355 nm and 356 nm; soluble at ratio [4, 6]: ⅕; soluble at ratio ([4]; Dubdis (Diisopropyl sebacate)): 1/1; UVA and UVB protections of the pig skin compared to the mix OCR+DHHB (pig skin; 2 h incubation, Dottisol): similar; UVA Fluorescence (Ex355/Em460) (pig skin; [7]): 2881 +/− 617; UVB Fluorescence (Ex300/Em460) (pig skin; [7]): 15248 +/− 3227"
–,No degradation,–,–,357,357,357,–,–,–,–,–,–,–,–,–,"CCCCCCOC(=O)c1ccccc1C(=O)c1ccc(N(CC)CC)cc1O [DHHB, diethylamino hydroxybenzoyl hexyl benzoate, reference compound]",–
No degradation,–,301,301,–,–,–,323,324,–,–,–,–,–,–,–,"CCCCC(CC)COc1ccc(-c2nc(-c3ccc(OC)cc3)nc(-c3ccc(OCC(CC)CCCC)cc3OCCCCCCCCNC(=O)C(C#N)=C(c3ccccc3)c3ccccc3)n2)c(O)c1 (stereo not shown) [Compound #5, 2-cyano-N-(8-(5-((2-ethylhexyl)oxy)-2-(4-(4-((2-ethylhexyl)oxy)-2-hydroxyphenyl)-6-(4-methoxyphenyl)-1,3,5-triazin-2-yl)phenoxy)octyl)-3,3-diphenylacrylamide]","λmax double peak, first peak ([3]; Dottisol): 301 nm; λmax double peak, second peak ([3]; Dottisol): 324 nm; λmax double peak, first peak ([3]; Dubdis): 301 nm; λmax double peak, second peak ([3]; Dubdis): 323 nm; λmax absorbance shift in UVB versus the mix of BEMT-OCR ([3]; same molar concentration, Dubdis, same shift in Dottisol): 10 nm; purity by HPLC after irradiation ([1]; Dubdis): 98.13%; purity by HPLC, non-irradiated ([1]; Dubdis): 98.88%; Absorbance peak, Irradiation 4000 J/dm2, second peak ([2]; Dubdis, listed as BOO): 323 nm; Effect of irradiation on UV absorbance profiles and λmax ([2]; Dubdis, UVB and UVA range, 4000 J/dm2 for 2 hours): did not modify; bio adhesion, UV absorbance at 310 nm [5]: did not show a bio adhesion; UVA and UVB protections of the pig skin compared to the mix OCR+BEMT (pig skin; 4 h incubation, Dottisol): similar; UVB Fluorescence (Ex300/Em460) No Wash (pig skin; pig skin autofluorescence after 2 h of incubation, DMDA (dimethyl capramide), Mean +/− SD, N = 3): 42968 +/− 3131; UVB Fluorescence (Ex300/Em460) EtOH Wash (pig skin; pig skin autofluorescence after 2 h of incubation, DMDA, 10 mL Ethanol 5 min, Mean +/− SD, N = 3): 152417 +/− 17275; UVA Fluorescence (Ex355/Em460) EtOH Wash (pig skin; [8]): 217235 +/− 4204; UVB Fluorescence (Ex300/Em460) EtOH Wash (pig skin; [8]): 205205 +/− 3116; UVA Fluorescence (Ex355/Em460) No Wash (pig skin; [9]): 49672 +/− 9882; UVB Fluorescence (Ex300/Em460) No Wash (pig skin; [9]): 49009 +/− 9100; UVB protection after ethanol wash compared to the initial protection before washing (pig skin; pig skin, 2 h incubation, DMDA): decreased three times"
–,No degradation,–,–,358,357,357,–,–,356,356,⅓,97.84,98.13,357,did not modify,"CCN(CC)c1ccc(C(=O)c2ccccc2C(=O)NCCCCCCOC(=O)C(C#N)=C(c2ccccc2)c2ccccc2)c(O)c1 [Compound #4, 6-[[2-[4-(diethylamino)-2-hydroxy-benzoyl]benzoyl]amino]hexyl 2-cyano-3,3-diphenyl-prop-2-enoate]",soluble at ratio ([4]; Dimethyl capramide (Spectrasolv DMDA)): 1/1
